# Source: ChEMBL document CHEMBL5380851, “"Magic Chloro": Profound Effects of the Chlorine Atom in Drug Discovery” (J Med Chem, 2023)
# Assay: Dissociation constant, pKa of the compound
row,SMILES,pKa
1,Clc1ccncc1,3.83
2,Clc1cccnc1,2.81
3,Clc1ccccn1 [2-CHLOROPYRIDINE],0.49
